33 compounds from PubChem BioAssay (NCI) can be followed below.

Several values for one entry are separate records, joined by “and”; a condition that tells them apart may be missing. Identical values can stand only once.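 Compound exposure: 48 hours, 5 concentrations, 96-well plates. GI50 = concentration required for 50% inhibition of growth. TGI denotes the concentration required for complete inhibition of growth.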

Assay in all cases: NCI tumour cell line growth inhibition, 48 h
Experiment [1] has as its system BT-549 breast.
Experiment [2] concerns DMS 114 small cell lung.
Experiment [3] has as its system LXFL 529 NSCLC.
For experiment [4], the system named is SNB-78 CNS.
Experiment [5] deals with XF 498 CNS.
For experiment [6], the system named is MDA-N.
Experiment [7] concerns RXF-631 renal.
Experiment [8] has as its system HOP-18 NSCLC.
Experiment [9] relates to KM20L2 colon.

As for `CC(CN1CCN(CCOCCO)CC1)CN1c2ccccc2Sc2ccc(Cl)cc21` (centres undefined), in experiment [1], the GI50 is 2.45 µM and the TGI was 6.67 µM.

Consider `O[C@H]1CO[C@H]2[C@@H]1OC[C@@H]2Oc1ccc(Nc2ccnc(Nc3ccc(O[C@H]4CO[C@H]5[C@@H]4OC[C@@H]5O)c(Cl)c3)n2)cc1Cl`, for which, in [1], the GI50 was 2.2 µM and the TGI was found to be 8.14 µM.

For `O=C(/C(=C/c1ccc([N+](=O)[O-])cc1)c1ccccc1)c1ccccc1`, in [1], the GI50 is 2.57 µM and the TGI was determined as 7.12 µM.

As to `CN(C)c1ccc(/C=C\c2cccc[n+]2C)cc1`, in experiment [1], the GI50 was 2.76 µM and the TGI was 79.8 µM.

As for `CCOC(=O)c1oc2ccc(OC)c3c2c1CCC3`, the TGI in experiment [2], in experiment [3], in [4] and in experiment [5] was > 100 µM in each case.

Regarding `C/C(=N\Nc1ccc2ccccc2n1)c1ccccn1`, in [1], the GI50 is 0.256 µM and the TGI worked out at 16.6 µM.

Consider `COc1cccc(C=Nc2cc(C)ccn2)c1O.COc1cccc(C=Nc2cc(C)ccn2)c1O.[Cu]`, for which, in experiment [1], the GI50 is 16.5 µM and the TGI turned out to be 42.4 µM. In [6], the GI50 is 16.3 µM and the TGI was found to be 41.3 µM.

In the case of `O=C(O)C/C=C/CC(=O)O`, the TGI in [1] and in experiment [6] was > 100 µM throughout.

With `O=C1C(=O)c2c(nc3ccc(Cl)cn23)-c2ccccc21`, in experiment [1], the GI50 was 0.502 µM and the TGI was found to be 1.21 µM.

As to `CCOC(=O)C1Oc2ccc([N+](=O)[O-])c3c2C1(O)CCC3` (centres undefined), the TGI in experiment [2], in [3], in experiment [7] and in experiment [4] was > 100 µM throughout.

Regarding `CCN(C(=O)N1CCN(c2cc3c(cc2F)c(=O)c(C(=O)O)cn3C2CC2)CC1)c1nc(-c2ccc(C)cc2)cs1`, in [1], the GI50 was 0.336 µM and the TGI amounted to 1.56 µM.

On to `O=C1c2ccccc2-c2c1c1ccc([N+](=O)[O-])cc1c(=O)n2CCCBr`, for which, in experiment [1], the GI50 is > 100 µM and the TGI was > 100 µM.

As for `C=CC(=O)N(C)[C@H]1C[C@H]2OC(C)(C1OC)n1c3ccccc3c3c4c(c5c6ccccc6n2c5c31)C(=O)NC4` (some centres undefined), in experiment [1], the GI50 was 0.0963 µM and the TGI was determined as 0.553 µM.

`COc1cc2nc(N3CCCC3)nc(NCC3CCCCC3)c2cc1OC`: in experiment [1], the GI50 is 1.41 µM and the TGI came out at 2.78 µM.

For `CCCn1c(C)nc2c1C(=O)c1ccccc1C2=O`, in [1], the GI50 was 31.4 µM and the TGI was > 100 µM.

As to `C=CC(=O)Nc1cccc(C)c1Nc1cc(-c2cccnc2Cc2c(C)c(OC)cc(OC)c2C)ncn1`, in [1], the GI50 was 6.23 µM and the TGI was 29.6 µM.

For `CCOC(=O)C1=C(NC)OC/C1=N\NC(=O)c1ccccc1O`, the TGI in experiment [2] was 89.6 µM; in [8] it was > 100 µM; in experiment [9] it was > 100 µM; in experiment [3], > 100 µM; in [4], > 100 µM; in [5] it was > 100 µM.

Take `O=C(C1CCCCC1)[C@@H]1[C@]2(C(=O)NC3CCCCC32)[C@@H]2CCCN2[C@@]12C(=O)NC1CCC(Cl)CC12` (some centres undefined): in experiment [1], the GI50 was 145 µM and the TGI is 286 µM.

In the case of `Cc1cc(N/N=C/c2nc(-c3ccc(Br)cc3)oc2C)c2cc(Cl)ccc2n1`, in experiment [1], the GI50 is > 100 µM and the TGI is > 100 µM.

Turning to `C=C1COC(/C=C(\C)CC/C=C(\C)CCl)C1` (centres undefined), the TGI in experiment [2], in experiment [9], in experiment [3], in experiment [4] and in experiment [5] was > 100 µM throughout.

Consider `COc1ccc(C2CC(c3cc(OC)c(OC)c(OC)c3)=NN2C(C)=O)cc1OCC(=O)Nc1nc2ccc(C(F)(F)F)cc2s1` (centres undefined), for which, in experiment [1], the GI50 was 3.55 µM and the TGI came out at 82 µM.

`Cc1ccc(NC(=O)/C=C/c2ccccc2)c(C(N)=O)c1`: in experiment [1], the GI50 is 12.5 µM and the TGI was > 100 µM.

As for `C=C1CC[C@@H]2[C@](C)(COC(C)=O)[C@@H](O)CC[C@@]2(C)[C@@H]1COc1ccc2ccc(=O)oc2c1`, in experiment [1], the GI50 was 47.8 µM and the TGI is > 100 µM.

`COc1cc2c(cc1OCCCCOc1cc3c(cc1OC)C(=O)N1CCC[C@H]1CN3)N=C[C@@H]1CCCN1C2=O`: in experiment [1], the GI50 is 0.357 µM and the TGI was determined as 5.75 µM.

Take `Cc1ccc(C(=O)Nc2ccc(CN3CCN(C)CC3)c(C(F)(F)F)c2)cc1C#Cc1cnc2cccnn12`: in experiment [1], the GI50 was 1.15 µM and 2.57 µM; the TGI is 2.45 µM and 5.19 µM.

As to `COc1ccc(C(OCC2OC(n3ccc(NC(=O)c4ccccc4)nc3=O)C(O)C2O)(c2ccccc2)c2ccccc2)cc1` (centres undefined), in [6], the TGI is 3.79 µM.

As for `Cn1c2c(cc(S(=O)(=O)c3ccccc3)c1=O)CCc1c-2cnn1-c1ccc(Cl)cc1`, in [1], the GI50 is 3.03 µM and the TGI is 7.82 µM.

Consider `CC(C)(C)c1ccc(OCCCCCCN2CCNCC2)cc1`, for which, in experiment [1], the GI50 is 10.5 µM and the TGI came out at 27.1 µM.

Take `O=C(N/N=C/c1ccc2c(c1)CCC2)c1ccccc1O`: the figures for the TGI in experiment [1] and in experiment [6] were 41.7 µM and 64.8 µM, respectively.

For the compound `COC1CC(OS(=O)(=O)c2ccc(C)cc2)C(OC(=O)c2ccccc2)C(C)O1` (centres undefined), the TGI is > 100 µM in [2]; > 10 µM in [8]; > 100 µM in experiment [9]; > 100 µM in experiment [3]; > 100 µM in experiment [4]; > 100 µM in experiment [5]. In addition, the GI50 in [9], in [3] and in experiment [4] was > 100 µM each time.

For the compound `Cc1c(C#N)c(=O)[nH]c(=O)n1CCN1CCN(C(=O)NCCCCCCNC(=O)N2CCN(CCn3c(C)c(C#N)c(=O)[nH]c3=O)CC2)CC1`, the TGI in experiment [2], in [8], in experiment [9], in experiment [3], in [4] and in [5] was > 100 µM in each case.

As for `CC(C)CC(CC1=CCC2CC1C2(C)C)C1=C(O)C(C)(C)C(=O)C(C)(C)C1=O` (centres undefined), in [1], the GI50 is 0.413 µM and the TGI was found to be 4.37 µM.

As to `COc1ccc(-c2cc(-c3ccccc3)nc(SCCCC(=O)NO)n2)cc1`, in experiment [1], the GI50 was 2.76 µM and the TGI worked out at 13.1 µM.
